Experimental data as given in patent publication US5880106A, “Oral dosing formulations of dideoxy purine nucleosides” (Bristol-Myers Squibb Company, priority 1997, dated 1999).
Read-outs that look alike come from different tables or passages of the source.

Legend:
[1] = Solution stability of didanosine as a function of pH (stomach degradation model, Acid Neutralization Rate Test); assay type: physicochemical; details: water with hcl; pH 5, 37° C., 1/2 hour
[2] = 37° C., cited from earlier work

For `OC[C@@H]1CC[C@H](n2cnc3c(O)ncnc32)O1` [Didanosine, 2',3'-Dideoxyinosine], the degraded at 0.5 h [1] is listed as < 4%, the t90 ([2]; pH 7.4) is listed as 16 days and the t90 ([2]; pH 9.5) is listed as 509 days. The t90 ([2]; pH <3) was < 0.0014 days.
